Patent publication US8227433B2, “Use of inhibitors and antisense oligonucleotides of BTK for treating proliferative mastocytosis” (Centre National de la Recherche Scientifique (CNRS), priority 2003, dated 2012)

Columns and labels:
HMC-1 cells = assay: Tumor size in nude mice injected with HMC-1 cells expressing the BTK antisense; format: in vivo; details: nude mice injected with 2 millions HMC-1 cells, tumor size assessed few weeks after injection, FIG. 4
Source text: We used nude mice, which have been injected with 2 millions HMC-1 cells.

HMC1 cells [1] = assay: G418-resistant colony formation of HMC1 cells infected with LNCX or LNCX-AS BTK virus; format: cell-based
Experimental: HMC1 cells seeded the day before in 6 wells plates (10^5 cells/ well) are infected with increasing doses of LNCX or LNCX-AS BTK virus. 24 hours after infection, cells are washed in PBS and cultured in medium containing geneticine (1.2 mg/ml). After one week, we observed the formation of colonies resistant to geneticine and whose number depends on the quantity of virus used for infection. When comparing the number of colonies of HMC1 resisting to G418 obtained from cells infected with the LNCX or LNCX-AS BTK virus, we observed independently of the virus concentration used, a lower number of colonies of cells infected with LNCX-AS BTK relative to the number of colonies of cells infected with LNCX. For equivalent quantity of virus, we obtained between 5 to 10 fold less colonies of HMC resisting to G418 by infecting with the LNCX-AS BTK virus compared to the infection with the LNCX “empty”.
The 10 to 20% surviving clones are those for which the antisense expression level is weak thereby maintaining a BTK expression level compatible with cellular survival.

BTK = BTK expression in HMC-1 clones that integrated the retrovirus vector coding for the BTK antisense RNA; format: cell-based, human; details: HMC-1 target cells which integrated the vector; 4 clones; FIG. 3
Source text: 2.1 We used antisense RNA to inhibit the expression of BTK in HMC-1, which is resistant to apoptosis. In this regard, we have constructed a retrovirus vector coding for an antisense RNA containing 32 nucleotides directed to the sequence comprised in the AUG region of the BTK gene (SEQ ID No 1).
Target cells, which integrated this vector, show a significant decrease in the expression of BTK. Regarding 4 clones, we have noted a decrease of about 50% of the expression of the BTK (see FIG. 3).

HMC1 cells [2] = assay: Determination of HMC1 cells sensibility to G418 (lethal geneticine dose); format: cell-based, human; details: 6 wells plate; 0 to 1.4 mg/ml tested; colonies visualized one week after seeding
Experimental: To determine, the lethal geneticine dose for HMC1, cells were seeded in 6 wells plate (10^5 cells/wells) in presence of increasing concentration of geneticine (0; 0.6; 0.8; 1; 1.2; 1.4 mg/ml). One week after seeding, colonies are visualized by crystal purple coloration. It appears that the effective dose was 1.2 mg/ml geneticine in the culture Media. Indeed, at lower doses, we observed development of HMC1 colonies. • -Infection of HMC1 Cells

Row | Molecule | anti-tumoral effect (size of the tumors) (HMC-1 cells) | anti-tumoral effect (size of the tumors) (HMC-1 cells; listed as antisens oligonucleotide directed against BTK) | cellular mortality (HMC1 cells [1]; HMC1 cells, decrease of BTK expression by the antisense RNA) [%] | surviving clones (HMC1 cells [1]; HMC1 clones with weak antisense expression level) [%] | decrease of the expression of the BTK (BTK) | lethal (effective) geneticine dose for HMC1 (HMC1 cells [2]) [mg/mL]
1 | 5′ AGAATCACTGCGGCCATAGCTTCTTCTTTCTG 3′ (chemistry not given here) [BTK antisense] | significant anti-tumoral effects | significantly decrease the size of tumors | 80 to 90 | 10 to 20 | about 50% | 
2 | CN[C@@H]1[C@@H](O)[C@@H](O[C@@H]2[C@@H](O)[C@H](O[C@H]3O[C@H]([C@@H](C)O)[C@@H](O)[C@H](O)[C@H]3N)[C@@H](N)C[C@H]2N)OC[C@]1(C)O [geneticine] |  |  |  |  |  | 1.2
